Measurements reported in PubChem BioAssay AID248 (DTP/NCI, 2004).
“And” between values parts separate entries of the source, which are not always exact repeats. Equal values may be shown once. Inconclusive results and toxic doses are left out. No stated cut-off is given here; in the data, active means T/C of 150% or more; inactive means T/C below 125%. Square brackets hold non-standard residues; d marks the D form. Peptide text beside a SMILES is read from it. ξ: configuration not given here. ξY = NC(Cc1ccc(O)cc1)C(=O)O

Test system: L1210 leukemia ip in BDF1 mice, survival T/C
Test: NCI In Vivo Anticancer Drug Screen. Data for tumor model L1210 Leukemia (intraperitoneal) in B6D2F1 (BDF1) mice
Settings: endpoint: mean survival time, higher = longer survival
Description: The antitumor activity of compounds was measured in mice bearing transplantable tumors. Survival or tumor size were measured and the results are expressed as the measurement made in the treated group (T) divided by the measurement made in the vehicle treated control group (C). The tumor model used in this assay is L1210 Leukemia (intraperitoneal) in B6D2F1 (BDF1) mice

[1] = dose: 100.0 mg/kg/injection, schedule: Q01DX009 (ip), vehicle: saline with Tween-80
[2] = dose: 200.0 mg/kg/injection, schedule: Q01DX009 (ip), vehicle: saline with Tween-80
[3] = dose: 100.0 mg/kg/injection, schedule: Q01DX001 (ip), vehicle: carboxymethylcellulose (CMC)
[4] = dose: 200.0 mg/kg/injection, schedule: Q01DX001 (ip), vehicle: carboxymethylcellulose (CMC)
[5] = dose: 400.0 mg/kg/injection, schedule: Q01DX001 (ip), vehicle: carboxymethylcellulose (CMC)
[6] = dose: 100.0 mg/kg/injection, schedule: Q01DX009 (ip), vehicle: Klucel (hydroxypropylcellulose) (HPC)
[7] = dose: 200.0 mg/kg/injection, schedule: Q01DX009 (ip), vehicle: Klucel (hydroxypropylcellulose) (HPC)
[8] = dose: 400.0 mg/kg/injection, schedule: Q01DX009 (ip), vehicle: Klucel (hydroxypropylcellulose) (HPC)
[9] = dose: 100.0 mg/kg/injection, schedule: Q01DX001 (ip), vehicle: saline
[10] = dose: 200.0 mg/kg/injection, schedule: Q01DX001 (ip), vehicle: saline
[11] = dose: 400.0 mg/kg/injection, schedule: Q01DX001 (ip), vehicle: saline
[12] = dose: 100.0 mg/kg/injection, schedule: Q04DX003 (ip), vehicle: saline with Tween-80
[13] = dose: 200.0 mg/kg/injection, schedule: Q04DX003 (ip), vehicle: saline with Tween-80
[14] = dose: 400.0 mg/kg/injection, schedule: Q04DX003 (ip), vehicle: saline with Tween-80
[15] = dose: 100.0 mg/kg/injection, schedule: Q04DX003 (ip), vehicle: saline
[16] = dose: 200.0 mg/kg/injection, schedule: Q04DX003 (ip), vehicle: saline
[17] = dose: 400.0 mg/kg/injection, schedule: Q04DX003 (ip), vehicle: saline

Measured: T/C

N/C(=N\O)c1cccnc1
inactive: dose: 25.0 mg/kg/injection, schedule: Q01DX009 (ip), vehicle: water 98 % of control | dose: 50.0 mg/kg/injection, schedule: Q01DX009 (ip), vehicle: water 106 % of control | [1] 100 % of control | dose: 100.0 mg/kg/injection, schedule: Q01DX009 (ip), vehicle: water 101 % of control | dose: 100.0 mg/kg/injection, schedule: Q04DX003 (ip), vehicle: water 100 % of control | [2] 96 % of control | dose: 200.0 mg/kg/injection, schedule: Q01DX009 (ip), vehicle: water 97 % of control | dose: 200.0 mg/kg/injection, schedule: Q04DX003 (ip), vehicle: water 107 % of control

COc1ccc(C(=O)c2ccn[nH]2)cc1
inactive: dose: 75.0 mg/kg/injection, schedule: Q04DX003 (ip), vehicle: Klucel (hydroxypropylcellulose) (HPC) 97 % of control | dose: 150.0 mg/kg/injection, schedule: Q04DX003 (ip), vehicle: Klucel (hydroxypropylcellulose) (HPC) 100 % of control | dose: 300.0 mg/kg/injection, schedule: Q04DX003 (ip), vehicle: Klucel (hydroxypropylcellulose) (HPC) 99 % of control

CCCCCCCC(=O)N(C(C)C)C(C)C
inactive: [3] 108 % of control | dose: 100.0 mg/kg/injection, schedule: Q01DX009 (ip), vehicle: carboxymethylcellulose (CMC) 101 % of control and 103 % of control | dose: 100.0 mg/kg/injection, schedule: Q04DX002 (ip), vehicle: carboxymethylcellulose (CMC) 100 % of control | dose: 100.0 mg/kg/injection, schedule: Q04DX003 (ip), vehicle: carboxymethylcellulose (CMC) 100 % of control | [4] 98 % of control | dose: 200.0 mg/kg/injection, schedule: Q01DX009 (ip), vehicle: carboxymethylcellulose (CMC) 93 % of control and 109 % of control | dose: 200.0 mg/kg/injection, schedule: Q04DX002 (ip), vehicle: carboxymethylcellulose (CMC) 89 % of control | dose: 200.0 mg/kg/injection, schedule: Q04DX003 (ip), vehicle: carboxymethylcellulose (CMC) 102 % of control | [5] 96 % of control | dose: 400.0 mg/kg/injection, schedule: Q01DX009 (ip), vehicle: carboxymethylcellulose (CMC) 103 % of control and 111 % of control | dose: 400.0 mg/kg/injection, schedule: Q04DX002 (ip), vehicle: carboxymethylcellulose (CMC) 96 % of control | dose: 400.0 mg/kg/injection, schedule: Q04DX003 (ip), vehicle: carboxymethylcellulose (CMC) 105 % of control

CN(C(=O)Nc1ccc(Cl)cc1[N+](=O)[O-])C1CCCCC1
inactive: [6] 92 % of control | [7] 94 % of control | [8] 97 % of control

CCOC(=O)c1c(/N=C/c2ccc(N(C)C)cc2)sc2c1CCCC2
inactive: dose: 100.0 mg/kg/injection, schedule: Q04DX002 (ip), vehicle: Klucel (hydroxypropylcellulose) (HPC) 107 % of control | dose: 200.0 mg/kg/injection, schedule: Q04DX002 (ip), vehicle: Klucel (hydroxypropylcellulose) (HPC) 100 % of control | dose: 400.0 mg/kg/injection, schedule: Q04DX002 (ip), vehicle: Klucel (hydroxypropylcellulose) (HPC) 104 % of control

ClCc1c2ccccc2c(CCl)c2ccccc12
inactive: dose: 0.9 mg/kg/injection, schedule: Q01DX009 (ip), vehicle: saline with Tween-80 118 % of control | dose: 1.35 mg/kg/injection, schedule: Q01DX009 (ip), vehicle: saline with Tween-80 120 % of control | dose: 2.05 mg/kg/injection, schedule: Q01DX009 (ip), vehicle: saline with Tween-80 111 % of control | dose: 2.08 mg/kg/injection, schedule: Q01DX009 (ip), vehicle: saline 120 % of control | dose: 3.12 mg/kg/injection, schedule: Q01DX009 (ip), vehicle: saline 111 % of control | dose: 4.0 mg/kg/injection, schedule: Q01DX009 (ip), vehicle: carboxymethylcellulose (CMC) 110 % of control | dose: 4.68 mg/kg/injection, schedule: Q01DX009 (ip), vehicle: saline with Tween-80 94 % of control | dose: 4.68 mg/kg/injection, schedule: Q01DX009 (ip), vehicle: saline 98 % of control | dose: 5.0 mg/kg/injection, schedule: Q01DX009 (ip), vehicle: carboxymethylcellulose (CMC) 121 % of control | dose: 6.2 mg/kg/injection, schedule: Q01DX015 (ip), vehicle: carboxymethylcellulose (CMC) 112 % of control | dose: 7.0 mg/kg/injection, schedule: Q01DX001 (ip), vehicle: saline 114 % of control | dose: 9.3 mg/kg/injection, schedule: Q01DX015 (ip), vehicle: carboxymethylcellulose (CMC) 106 % of control | dose: 14.0 mg/kg/injection, schedule: Q01DX001 (ip), vehicle: saline 104 % of control | dose: 14.0 mg/kg/injection, schedule: Q01DX015 (ip), vehicle: carboxymethylcellulose (CMC) 104 % of control | dose: 16.0 mg/kg/injection, schedule: Q01DX009 (ip), vehicle: carboxymethylcellulose (CMC) 119 % of control | dose: 20.0 mg/kg/injection, schedule: Q01DX009 (ip), vehicle: carboxymethylcellulose (CMC) 123 % of control | dose: 28.0 mg/kg/injection, schedule: Q01DX001 (ip), vehicle: saline 104 % of control | dose: 56.0 mg/kg/injection, schedule: Q01DX001 (ip), vehicle: saline 109 % of control | dose: 88.8 mg/kg/injection, schedule: Q01DX001 (ip), vehicle: saline 113 % of control | [9] 118 % of control | dose: 112.0 mg/kg/injection, schedule: Q01DX001 (ip), vehicle: saline 109 % of control | [10] 109 % of control | dose: 300.0 mg/kg/injection, schedule: Q01DX001 (ip), vehicle: saline 109 % of control | [11] 92 % of control

O=C(OC(=O)c1ccncc1)c1ccncc1
inactive: dose: 75.0 mg/kg/injection, schedule: Q04DX003 (ip), vehicle: saline 94 % of control | dose: 150.0 mg/kg/injection, schedule: Q04DX003 (ip), vehicle: saline 92 % of control | dose: 300.0 mg/kg/injection, schedule: Q04DX003 (ip), vehicle: saline 110 % of control

CC(=O)Nc1ccc2c(c1)C(C)c1ccccc1-2 (stereo not drawn)
inactive: [3] 89 % of control | [4] 95 % of control | [5] 93 % of control

NCC(=O)NC(Cc1ccc(O)cc1)C(=O)O (stereo not drawn) (H-Gly-[ξY]-OH)
inactive: [9] 104 % of control | [10] 105 % of control and 102 % of control | [11] 98 % of control and 93 % of control

Cc1ccc(S(=O)(=O)NC(=O)O/N=C/c2ccccn2)cc1
inactive: [12] 98 % of control | [13] 101 % of control | [14] 104 % of control

Cc1ccnc(NC(=O)Nc2ccccc2F)c1
inactive: [9] 97 % of control and 106 % of control | [1] 92 % of control | [15] 95 % of control | [10] 101 % of control | [2] 96 % of control | [16] 101 % of control | [11] 97 % of control and 88 % of control | dose: 400.0 mg/kg/injection, schedule: Q01DX009 (ip), vehicle: saline with Tween-80 91 % of control | [17] 101 % of control

CCC(CC)(c1ccccc1)C(O)c1ccccc1 (stereo not drawn)
inactive: dose: 50.0 mg/kg/injection, schedule: Q01DX001 (ip), vehicle: saline 97 % of control | [9] 97 % of control | [10] 103 % of control | [11] 101 % of control

C=C(C)CN=C=S
inactive: dose: 25.0 mg/kg/injection, schedule: Q01DX009 (ip), vehicle: saline with Tween-80 100 % of control | dose: 25.0 mg/kg/injection, schedule: Q04DX003 (ip), vehicle: saline with Tween-80 101 % of control | dose: 50.0 mg/kg/injection, schedule: Q01DX009 (ip), vehicle: saline with Tween-80 98 % of control | dose: 50.0 mg/kg/injection, schedule: Q04DX003 (ip), vehicle: saline with Tween-80 109 % of control | [1] 104 % of control | [12] 103 % of control

CCOC(=O)/C(C)=C\C=C(\C)CCC=C(C)C
inactive: [6] 104 % of control | [7] 102 % of control | [8] 104 % of control

C1CCC(SSC2CCCC2)C1
inactive: [12] 89 % of control | [13] 92 % of control | [14] 92 % of control

COCCOC(=O)CCCCC(=O)OCCOC
inactive: [15] 107 % of control | [16] 100 % of control | [17] 94 % of control
